Test results from patent publication US9676820B2, “Method for inhibiting proliferation of high LIX1L-expressing tumor cell, and tumor cell proliferation-inhibiting peptide” (National University Corporation Hamamatsu University School …, priority 2013, dated 2017).
“Also recorded” adds a separate entry of the source.

Columns and labels:
Type in all cases: cell-based
[1] = tested on: RPMI8226 strain; test: MTT assay, RPMI8226 strain; conditions: peptide 0 μM to 100 μM, 72 hours
Description: (§1) Specifically, first, cells plated in a 96-well microplate such that the density thereof became 5×10^3 cells/well were cultured for one night in a culture solution having the same composition as those in the reference examples. Thereafter, the culture solution was exchanged with 100 μL of a culture solution of which the concentration of peptides is 0 μM to 100 μM for culturing for 72 hours. After the culturing, an MTT-containing PBS solution was added to the culture solution, and the mixture was incubated for 4 hours. Then, formazan which was generated by putting 100 μL of isopropanol (containing 34 (v/v) % of hydrochloric acid) into each of the wells was dissolved. The absorbance of each of the wells of the microplate at 570 nm was measured using a microplate reader. As controls, culturing was performed in the same manner except that no peptide was added to the strains, an MTT assay was performed thereon, and the absorbance at 570 nm was measured (untreated).
Specifically, the cells were cultured for 72 hours similarly to Example 2 except that a peptide to be added to a cell strain was set to peptide 1, 3, or 4, or a control peptide, an MTT assay was performed thereon, and the absorbance at 570 nm was measured.

[2] = tested on: MKN45 strain; test: MTT assay, MKN45 strain
Description: as §1, with “Thereafter, the culture solution was exchanged with 100 μL of a culture solution of which the concentration of peptides is 0 μM to 100 μM for culturing for 72 hours.” left out
In the method for measuring the viable cell counts, cells were cultured for 3 days similarly to Example 1 except that a 25 μM (10 μM for an HL-60 strain, a K562 strain, and a U937 strain) culture solution containing a control peptide or a peptide 1 was used, and the viable cell counts were measured. As a comparison, culturing was performed similarly to the above using a culture solution containing no peptide, and the viable cell counts were measured (untreated).
In addition, in the method for performing an MTT assay, cells were cultured for 72 hours similarly to Example 2 except that a peptide to be added to a strain was set to a control peptide or a peptide 1 at 25 μM (10 μM for an HL-60 strain, a K562 strain, and a U937 strain), an MTT assay was performed thereon, and the absorbance at 570 nm was measured. As a comparison, culturing was performed similarly to the above using a culture solution containing no peptide, and the MTT assay was performed thereon (untreated).
Specifically, the cells were cultured for 72 hours similarly to Example 2 except that a peptide to be added to a cell was set to a peptide 1, 2, 5, or 6, MTT assays were performed thereon, and the absorbance at 570 nm was measured. As a comparison, culturing was performed similarly to the above using a culture solution containing no peptide, and the MTT assay was performed thereon (untreated).
Specifically, the cells were cultured for 72 hours similarly to Example 2 except that peptides to be added to cell strains were set to peptides 7 to 14, MTT assays were performed thereon, and the absorbance at 570 nm was measured. […]
Specifically, the cells were cultured for 72 hours similarly to Example 2 except that a peptide to be added to a cell strain was set to a peptide 15 or 16, an MTT assay was performed thereon, and the absorbance at 570 nm was measured. […]

[3] = tested on: RPMI8226 strain; test: Viable cell counts (Trypan blue staining), RPMI8226 strain; conditions: 5 μM peptide, up to 72 hours, vs untreated
Description: Specifically, cells plated such that the density thereof became 1×10^4 cells/3.5 cm well for one plate (6 wells/plate) for each cell strain were cultured for one night in a culture solution having the same composition as those of the culture solutions described in the reference examples. After culturing of 1 well out of the 6 wells was completed, Trypan blue staining was performed on the 1 well, and viable cell counts were counted. The remaining 5 wells were cultured after exchanging the culture solution with a liquid mixture of a Lipofectamine (registered trademark) reagent (12.5 μL/well) and a culture solution (2 mL/well) of which the shRNA concentration became 2.5 μg/well. Then, Trypan blue staining was performed on 1 well 24 hours after the exchange of a culture medium, 1 well 48 hours after the exchange of a culture medium, and the remaining 1 well 72 hours after the exchange of a culture medium, and the viable cell counts were counted. As a control, the viable cell counts were measured (untreated) by performing the culturing similarly to the above except that a culture medium was exchanged with a culture solution to which no shRNA was added. […]

[4] = tested on: K562 strain; test: Viable cell counts (Trypan blue staining), K562 strain; conditions: 5 μM peptide, vs untreated
Description: Specifically, cells plated such that the density thereof became 1×10^4 cells/3.5 cm well for one plate (6 wells/plate) for each cell strain were cultured for one night in a culture solution having the same composition as those of the culture solutions described in the reference examples. After culturing of 1 well out of the 6 wells was completed, Trypan blue staining was performed on the 1 well, and viable cell counts were counted. The remaining 5 wells were cultured after exchanging the culture solution with a liquid mixture of a Lipofectamine (registered trademark) reagent (12.5 μL/well) and a culture solution (2 mL/well) of which the shRNA concentration became 2.5 μg/well. Then, Trypan blue staining was performed on 1 well 24 hours after the exchange of a culture medium, 1 well 48 hours after the exchange of a culture medium, and the remaining 1 well 72 hours after the exchange of a culture medium, and the viable cell counts were counted. As a control, the viable cell counts were measured (untreated) by performing the culturing similarly to the above except that a culture medium was exchanged with a culture solution to which no shRNA was added.
Specifically, the viable cell counts were measured after culturing the cells similarly to Example 1 except that a 5 μM culture solution containing a control peptide, a peptide 1, or a peptide 2 was used instead of the culture solution (2 mL/well) of which the shRNA concentration was 2.5 μg/well. The viable cell counts were measured (untreated) by performing the culturing similarly to Example 1 using a culture solution containing no peptide 2, as a control.

[5] = tested on: OCUM-1 strain; test: MTT assay, OCUM-1 strain; conditions: MTT assay, 72 hours
Description: as §1

## CC(C)[C@H](NC(=O)[C@H](Cc1ccc(O)cc1)NC(=O)[C@H](CS)NC(=O)[C@@H](NC(=O)[C@H](Cc1ccc(O)cc1)NC(=O)[C@@H]1CCCN1C(=O)[C@@H]1CCCN1C(=O)[C@H](CO)NC(=O)[C@H](CC(N)=O)NC(=O)[C@H](CO)NC(=O)[C@@H]1CCCN1C(=O)CCCCCNC(=O)[C@H](CCCNC(=N)N)NC(=O)[C@H](CCCNC(=N)N)NC(=O)[C@H](CCCNC(=N)N)NC(=O)[C@H](CCC(N)=O)NC(=O)[C@H](CCCNC(=N)N)NC(=O)[C@H](CCCNC(=N)N)NC(=O)[C@H](CCCCN)NC(=O)[C@H](CCCCN)NC(=O)[C@H](CCCNC(=N)N)NC(=O)CNC(=O)[C@@H](N)Cc1ccc(O)cc1)C(C)C)C(N)=O [peptide 1, YGRKKRRQRRR-X-PSNSPPYVCYV-NH2]
[1]
  absorbance at 570 nm (MTT assay), influence on cell proliferation: no effect of inhibiting the cell proliferation; also recorded: not inhibited
[2]; 72 hours, peptide concentrations up to 250 μM
  cell proliferation (MTT assay, absorbance at 570 nm): inhibited
[2]; peptide 25 μM, 3 days / 72 hours
  cell proliferation (viable cell counts and MTT assay): inhibited
[3]
  viable cell counts: the same as those in the untreated case
[4]; after 72 hours
  viable cell counts: very small
[4]; after culturing for 24 hours
  viable cell counts: decreased
[5]
  concentration at which a dominant effect of inhibiting the cell proliferation was recognized: greater than or equal to 6.25 μM
